{
  "source": "patent US9358262B2",
  "about": "“Use of antioxidant-enriched fermented blueberry extracts in the treatment of diabetes” (priority 2003, dated 2016)",
  "tested_on": "KKA^y mice",
  "assay": "Chronic 4-week treatment of diabetic KKA^y mice in drinking water",
  "format": "in vivo, mouse",
  "experimental": "Mice were fasted for 16 h. A glucose solution was administered by intragastric gavage at a dose of 1 g/kg body weight. The blood glucose concentration was measured at 0, 30, 60, 90, 120 min after glucose administration in the blood collected from the tip of the tail vein, using an Accu-Chek glucose meter (Roche, Montreal, QC, Canada).\nAt the end of the experiment, blood samples were collected from renal artery during exsanguinations carried out under anesthesia using heparinized tools. The samples were centrifuged at 3000 g for 10 min at 4° C. The plasma samples were used for the analyses of biochemical parameters. Plasma adiponectin, insulin and leptin were measured using radioimmuno assay (RIA) kits (Millipore, Montreal, QC, Canada).\nIn preliminary experiments, three different doses of BJ, namely 20, 40, 80 ml/kg/day, were incorporated in the drinking water and provided to mice for one week. […] Therefore, this dose was used for the chronic treatment studies described here.\nForty-two 7 week-old KKA^y mice were randomly divided into 6 groups (n=7) which received either water, normal blueberry juice (NJ) (80 ml/kg/day), biotransformed blueberry juice (BJ) (80 ml/kg/day; prepared as described in Example 8), or Metformin (0.85 g/kg/day) (Meglasson M D et al., supra) in drinking water. […] The sixth and final group received SW but had unrestricted access to solid food. Baseline measurements of fed blood glucose levels, body weight, food intake and water consumption were taken daily at 11.00 a.m. At the onset of experiments and after 4 weeks, an oral glucose tolerance test (OGTT) was performed, as described in Example 8.",
  "key": {"[1]": {"conditions": "NJ, BJ 80 ml/kg/day, MET 0.85 g/kg/day, 4 weeks"}},
  "note": "Marks after values point to notes of the source that are not given here.",
  "data": [
    {"smiles": "CN(C)C(=N)N=C(N)N", "note": "[MET, Metformin]", "values": [
      {"measurement": "Rise of circulating adiponectin above values of control animals", "setting": "4 weeks", "result": "neither NJ nor Metformin treatments could modify the low level of adiponectin"},
      {"measurement": "Reduction of circulating insulin levels vs controls", "setting": "4 weeks, BJ effect not statistically significant", "result": "normalized"},
      {"measurement": "Drop of OGTT AUC between the onset and the end of treatment", "setting": "4 weeks, glucose 1 g/kg by gavage", "result": 38, "unit": "%"},
      {"measurement": "Adiponectin (plasma)", "setting": "[1]", "result": "5.9 ± 0.6^a μg/ml"},
      {"measurement": "Insulin (plasma)", "setting": "[1]", "result": "1.7 ± 0.5^b ng/ml"},
      {"measurement": "Leptin (plasma)", "setting": "[1]", "result": "27.6 ± 2.9^a ng/ml"},
      {"measurement": "Reduction of food intake as compared to controls", "setting": "[1]", "result": 30, "unit": "%"},
      {"measurement": "Time to reach the maximum (BJ) or normalising (Metformin) effect on glycemia", "setting": "chronic treatment in drinking water", "result": "≤ 4", "unit": "days"},
      {"measurement": "Glycemia level (fed state)", "setting": "during 4-week treatment", "result": 10, "unit": "mM"},
      {"measurement": "Body weight loss as compared to controls", "setting": "end of the 4-week treatment period", "result": 4, "unit": "%"}
    ]}
  ]
}
